Test results from patent US20210188843A1, “QUINOLINE COMPOUNDS AND THEIR PREPARATION AND USE AS ANTIMALARIAL AGENTS” (The United States of America,as represented by the …, priority 2018, published 2021).
In brackets after ≈: the same amount, converted by molar mass. Where two headings read alike, the source gives them in different places.

Experiments:
[1] = Microsomal stability (rat); assay type: in vitro ADME; conditions: rat microsomes
Solubility pH 7.4 = assay type: physicochemical; conditions: aqueous buffer
[2] = tested on: Asexual parasites of P. falciparum strain 3D7; assay: In vitro drug activity on asexual parasites (SYBR Green assay); assay type: cell-based; conditions: Plasmodium falciparum, P. falciparum 3D7 asexual stage, 72 h, read-out: Asexual EC50
Protocol: Cell culture. Asexual parasites of P. falciparum strain 3D7 were cultured as described previously [Trager W, et al., Journal of Parasitology 2005, 91: 484-486]. Stage III-V gametocytes were selected and enriched with 3-day treatment with 50 mM N-acetylglucosamine (NAG) and the following Percoll density gradient centrifugation after gametocyte production [Tanaka T Q, et al., Molecular and Biochemical Parasitology, 2011, 177: 160-163]. Gametocytes of HB3 and Dd2 strains were produced and then set up for assay in a similar process. HepG2 cells (ATCC, cat. no. 77400) were cultured in 175-cm^2 tissue culture flasks with 30 ml growth medium at 37° C. in a 5% CO2 humidified atmosphere. Growth medium was made with Dulbecco's Modified Eagle Medium with 10% fetal bovine serum (FBS). Growth medium was replaced every other day and cells were passed at 75% confluence.
Asexual parasites of P. falciparum strain 3D7 were cultured as described previously (Trager, W. et al., J. Parasitol. 2005, 91(3): 484-486). Drug activity on asexual stage parasites was tested using a SYBR Green assay as described previously (Eastman, R. T. et al., Antimicrob. Agents Chemother. 2013, 57(1): 425-435; Smilkstein, M. et al., Antimicrob. Agents Chemother. 2004, 48(5): 1803-1806). Briefly, parasites were diluted to 0.5% parasitemia in complete culture medium with 2% hematocrit and drugs diluted in DMSO (<0.5%) and were loaded into a 96-well plate (200 μl/well). No drug and RBC alone wells were included as positive and background controls, respectively, and each testing condition was examined in duplicated. After 72 h incubation under the standard culture condition and a freeze-thaw lysis step at −80° C. and room temperature, 100 μl/well of lysis buffer containing SYBR Green I was added to the parasite culture and incubated for 30 min at room temperature. The fluorescence of each well was measured at 520 nm following excitation at 490 nm using a FLUOstar Optima™ microplate reader (BMG Labtech).
Compounds were screened against gametocytes and asexual parasites as described in Examples 1 and 2.

[3] = Table 1, read-out: Microsomal Stability (rat) T1/2

SMILES	half-life [1, 3]	solubility (Solubility pH 7.4; Table 1)	EC50 ([2]; Table 1)	also measured
Cc1ccc(C#N)cc1-n1c(=N)n(C)c2cnc3ccc(-c4ccc(Cl)c(N)c4)cc3c21 [Compound 40, 3-(8-(3-amino-4-chlorophenyl)-2-imino-3-methyl-2,3-dihydro-1H-imidazo[4,5-c]quinolin-1-yl)-4-methylbenzonitrile]	> 30 min	> 43 µg/mL	30.8 nM	–
Cc1cc(N2CCN(C(=O)OC(C)(C)C)CC2)c(C#N)cc1-n1c(=N)n(C)c2cnc3ccc(-c4ccc(Cl)cc4)cc3c21 [Compound 15, tert-butyl 4-(4-(8-(4-chlorophenyl)-2-imino-3-methyl-2,3-dihydro-1H-imidazo[4,5-c]quinolin-1-yl)-2-cyano-5-methylphenyl)piperazine-1-carboxylate]	> 30 min	< 1 µg/mL	591 nM	–
Cn1c(=N)n(-c2cccc(S(C)(=O)=O)c2)c2c3cc(-c4ccc(Cl)cc4)ccc3ncc21 [Compound 75, 8-(4-chlorophenyl)-3-methyl-1-(3-(methylsulfonyl)phenyl)-1,3-dihydro-2H-imidazo[4,5-c]quinolin-2-imine]	> 30 min	11.7 µg/mL (≈ 25.3 µM)	1020 nM	–
Cc1ccc(S(C)(=O)=O)cc1-n1c(=N)n(C)c2cnc3ccc(-c4ccc(Cl)cc4)cc3c21 [Compound 122, 8-(4-chlorophenyl)-3-methyl-1-(2-methyl-5-(methylsulfonyl)phenyl)-1,3-dihydro-2H-imidazo[4,5-c]quinolin-2-imine]	> 30 min	> 47 µg/mL	1610 nM	–
Cn1c(=N)n(-c2cncc(C(N)=O)c2)c2c3cc(-c4ccc(Cl)cc4)ccc3ncc21 [Compound 46, 5-(8-(4-chlorophenyl)-2-imino-3-methyl-2,3-dihydro-1H-imidazo[4,5-c]quinolin-1-yl)nicotinamide]	> 30 min	19.9 µg/mL (≈ 46.4 µM)	1760 nM	–
Cc1cc(N2CCN(C)CC2)c(C#N)cc1-n1c(=N)n(C)c2cnc3ccc(-c4cccc(F)c4)cc3c21 [Compound 144, 5-(8-(3-fluorophenyl)-2-imino-3-methyl-2,3-dihydro-1H-imidazo[4,5-c]quinolin-1-yl)-4-methyl-2-(4-methylpiperazin-1-yl)benzonitrile]	> 30 min	> 50 µg/mL	159 nM	–
Cn1c(=N)n([C@H]2CC[C@@H](N3CCOCC3)CC2)c2c3cc(-c4ccc(Cl)cc4)ccc3ncc21 [Compound 59, 8-(4-chlorophenyl)-3-methyl-1-((1s,4s)-4-morpholinocyclohexyl)-1,3-dihydro-2H-imidazo[4,5-c]quinolin-2-imine]	> 30 min	> 47 µg/mL	13200 nM	–
Cn1c(=N)n(-c2cnc(N3CCOCC3)c(C#N)c2)c2c3cc(-c4ccc(Cl)cc4)ccc3ncc21 [Compound 50, 5-(8-(4-chlorophenyl)-2-imino-3-methyl-2,3-dihydro-1H-imidazo[4,5-c]quinolin-1-yl)-2-morpholinonicotinonitrile]	> 30 min	< 1 µg/mL	309 nM	–
Cc1ccc(-n2c(=N)n(C)c3cnc4ccc(-c5ccc(Cl)cc5)cc4c32)cc1C#N [Compound 70, 5-(8-(4-chlorophenyl)-2-imino-3-methyl-2,3-dihydro-1H-imidazo[4,5-c]quinolin-1-yl)-2-methylbenzonitrile]	> 30 min	< 1 µg/mL	443 nM	–
Cc1ccccc1-c1ccc2ncc3c(c2c1)n(-c1cc(C#N)ccc1C)c(=N)n3C [Compound 61, 3-(2-imino-3-methyl-8-(o-tolyl)-2,3-dihydro-1H-imidazo[4,5-c]quinolin-1-yl)-4-methylbenzonitrile]	10 min	19.2 µg/mL (≈ 47.6 µM)	1720 nM	–
Cn1c(=N)n(-c2cncc(C#N)c2)c2c3cc(-c4ccc(Cl)cc4)ccc3ncc21 [Compound 45, 5-(8-(4-chlorophenyl)-2-imino-3-methyl-2,3-dihydro-1H-imidazo[4,5-c]quinolin-1-yl)nicotinonitrile]	> 30 min	7.8 µg/mL (≈ 19 µM)	130 nM	–
Cc1cc(N2CCN(C(N)=O)CC2)c(C#N)cc1-n1c(=N)n(C)c2cnc3ccc(-c4ccc(Cl)cc4)cc3c21 [Compound 126, 4-(4-(8-(4-chlorophenyl)-2-imino-3-methyl-2,3-dihydro-1H-imidazo[4,5-c]quinolin-1-yl)-2-cyano-5-methylphenyl)piperazine-1-carboxamide]	> 30 min	2.2 µg/mL (≈ 3.99 µM)	14.5 nM	–
Cc1cc(NS(C)(=O)=O)c(C#N)cc1-n1c(=N)n(C)c2cnc3ccc(-c4ccc(Cl)cc4)cc3c21 [Compound 123, N-(4-(8-(4-chlorophenyl)-2-imino-3-methyl-2,3-dihydro-1H-imidazo[4,5-c]quinolin-1-yl)-2-cyano-5-methylphenyl)methanesulfonamide]	> 30 min	< 1 µg/mL	88.6 nM	–
Cc1nc(N2CCNCC2)c(C#N)cc1-n1c(=N)n(C)c2cnc3ccc(-c4ccc(Cl)cc4)cc3c21 [Compound 47, 5-(8-(4-chlorophenyl)-2-imino-3-methyl-2,3-dihydro-1H-imidazo[4,5-c]quinolin-1-yl)-6-methyl-2-(piperazin-1-yl)nicotinonitrile]	> 30 min	6 µg/mL (≈ 11.8 µM)	69.7 nM	–
Cn1c(=N)n(-c2ccnc(N)n2)c2c3cc(-c4ccc(Cl)cc4)ccc3ncc21	–	–	–	half-life ([1]; Table 3, read-out: Microsomal Stability (rat) T1/2): > 30 min; solubility (Solubility pH 7.4; Table 3): 3.4 µg/mL (≈ 8.46 µM); EC50 ([2]; Table 3): 140 nM
N=c1ccc2cnc3ccc(-c4ccc(Cl)cc4)cc3c2n1-c1ccc(C(=O)NC2CC2)cc1	–	–	–	half-life ([1]; Table 2, read-out: Microsomal Stability (rat) T1/2): > 30 min; solubility (Solubility pH 7.4; Table 2): > 69 µg/mL; EC50 ([2]; Table 2): 85.7 nM
Cc1c(C#N)cccc1-n1c(=N)n(C)c2cnc3ccc(-c4ccc(Cl)cc4)cc3c21 [Compound 69, 3-(8-(4-chlorophenyl)-2-imino-3-methyl-2,3-dihydro-1H-imidazo[4,5-c]quinolin-1-yl)-2-methylbenzonitrile]	> 30 min	< 1 µg/mL	207 nM	–
Cc1ccc(C#N)cc1-n1c(=N)n(CCO)c2cnc3ccc(-c4ccc(Cl)cc4)cc3c21 [Compound 95, 3-(8-(4-chlorophenyl)-3-(2-hydroxyethyl)-2-imino-2,3-dihydro-1H-imidazo[4,5-c]quinolin-1-yl)-4-methylbenzonitrile]	> 30 min	27.4 µg/mL (≈ 60.4 µM)	2580 nM	–
COc1ccc(-c2ccc3ncc4c(c3c2)n(-c2cc(C#N)ccc2C)c(=N)n4C)cn1 [Compound 103, 3-(2-imino-8-(6-methoxypyridin-3-yl)-3-methyl-2,3-dihydro-1H-imidazo[4,5-c]quinolin-1-yl)-4-methylbenzonitrile]	> 30 min	> 42 µg/mL	163 nM	–
COc1ccccc1-n1c(=N)n(C)c2cnc3ccc(-c4ccc(Cl)cc4)cc3c21 [Compound 82, 8-(4-chlorophenyl)-1-(2-methoxyphenyl)-3-methyl-1,3-dihydro-2H-imidazo[4,5-c]quinolin-2-imine]	> 30 min	> 41 µg/mL	1670 nM	–
Cc1ccc(C#N)cc1-n1/c(=N/S(N)(=O)=O)n(C)c2cnc3ccc(-c4ccc(N)nc4)cc3c21 [Compound 101, (8-(6-aminopyridin-3-yl)-1-(5-cyano-2-methylphenyl)-3-methyl-1,3-dihydro-2H-imidazo[4,5-c]quinolin-2-ylidene)sulfonamide]	> 30 min	2.2 µg/mL (≈ 4.54 µM)	3.07 nM	–
Cc1cc(N2CCN(CCO)CC2)c(C#N)cc1-n1c(=N)n(C)c2cnc3ccc(-c4ccc(Cl)cc4)cc3c21 [Compound 115, 5-(8-(4-chlorophenyl)-2-imino-3-methyl-2,3-dihydro-1H-imidazo[4,5-c]quinolin-1-yl)-2-(4-(2-hydroxyethyl)piperazin-1-yl)-4-methylbenzonitrile]	> 30 min	> 55 µg/mL	125 nM	–
CCCC/N=c1\n(C)c2cnc3ccc(-c4ccc(Cl)cc4)cc3c2n1-c1cc(C#N)ccc1C [Compound 17, (E)-3-(2-(butylimino)-8-(4-chlorophenyl)-3-methyl-2,3-dihydro-1H-imidazo[4,5-c]quinolin-1-yl)-4-methylbenzonitrile]	> 30 min	1.1 µg/mL (≈ 2.29 µM)	542 nM	–
